{"source": "ChEMBL document CHEMBL1201862", "about": "“PubChem BioAssay data set” (2004)", "key": {"[1]": {"assay": "cells", "assay_type": "functional"}, "[2]": {"assay": "NIH-3T3 fibroblast cytotoxicity, dose response, cytotoxicity control, cell-based, fluorescence, Alamar Blue, secondary assay (AID 2327);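 further: NIH-3T3 mouse fibroblasts cultured with fluconazole at 8 µg/mL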", "assay_type": "functional"}, "[3]": {"assay": "fluconazole-exposed Candida albicans growth modulators – fluorescence, retest, confirmation (AID 2467)", "assay_type": "functional, cell-based"}, "[4]": {"biological_target": "T1, Calpain-2 catalytic subunit (Sus scrofa, UniProt P43367)", "T1 sequence (P43367 whole entry)": "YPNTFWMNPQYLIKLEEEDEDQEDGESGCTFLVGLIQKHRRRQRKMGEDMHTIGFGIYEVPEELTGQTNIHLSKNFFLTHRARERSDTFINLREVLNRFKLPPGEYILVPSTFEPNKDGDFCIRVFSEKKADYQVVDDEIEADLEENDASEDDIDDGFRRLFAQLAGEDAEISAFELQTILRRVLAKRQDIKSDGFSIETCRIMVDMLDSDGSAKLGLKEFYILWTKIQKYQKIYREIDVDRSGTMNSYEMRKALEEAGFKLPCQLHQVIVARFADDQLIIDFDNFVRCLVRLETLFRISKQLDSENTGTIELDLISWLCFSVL", "assay": "m-calpain protease blockers, concentration series – biochemical, fluorogenic peptide substrate, dose response (AID 1420)", "assay_type": "functional"}, "[5]": {"assay": "viability of uninfected HEp-2 cells – cell-based, HTS, cytotoxicity control for RSV inhibitor project, dose response (AID 2410)", "assay_type": "functional", "settings": "human respiratory syncytial virus"}, "[6]": {"assay": "luciferase reporter signal suppression in cells – H4 neuroglioma cells, luminescence, dose response (AID 1990)", "assay_type": "functional, cell-based"}, "[7]": {"assay": "Luminescence Cell-Based Dose Response HTS to Identify Inhibitors of 5'UTR Stem-Loop Driven Prion Protein mRNA Translation in H4 Neuroglioblastoma Cells. [Related pubchem assays: 1827 (Project Summary), 1813 (Primary HTS)]", "assay_type": "functional"}, "[8]": {"assay": "alpha-synuclein stem-loop luciferase translation blockers – H4 neuroglioma cells, luminescence, confirmation (AID 1988)", "assay_type": "functional, cell-based"}, "[9]": {"biological_target": "T2, Heat shock factor protein 1 (Mus musculus, UniProt P38532)", "T2 sequence (P38532 whole entry)": "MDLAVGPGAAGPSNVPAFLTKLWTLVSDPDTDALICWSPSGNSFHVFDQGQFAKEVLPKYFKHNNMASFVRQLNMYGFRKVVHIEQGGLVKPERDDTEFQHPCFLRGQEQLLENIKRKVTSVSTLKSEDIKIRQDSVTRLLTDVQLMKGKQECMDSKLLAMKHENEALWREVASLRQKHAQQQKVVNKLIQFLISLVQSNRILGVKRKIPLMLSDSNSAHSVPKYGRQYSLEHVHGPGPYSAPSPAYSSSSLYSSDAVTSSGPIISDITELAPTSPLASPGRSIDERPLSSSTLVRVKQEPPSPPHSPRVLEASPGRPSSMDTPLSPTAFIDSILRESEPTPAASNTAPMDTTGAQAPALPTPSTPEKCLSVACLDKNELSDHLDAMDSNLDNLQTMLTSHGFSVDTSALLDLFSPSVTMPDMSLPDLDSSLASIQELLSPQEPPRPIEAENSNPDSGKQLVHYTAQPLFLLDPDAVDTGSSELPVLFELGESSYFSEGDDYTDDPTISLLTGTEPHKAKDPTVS", "assay": "decrease of HSF1-responsive luciferase luminescence – cell-based, NIH3T3, dose retest, confirmation (AID 2382);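 further: NIH3T3 fibroblasts with HSF1-driven luciferase reporter stressed by proteasome inhibitor MG132; luminescence from HSF1-driven luciferase expression after 8 hours of MG132 stress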", "assay_type": "functional"}, "[10]": {"tested_on": "HEK293", "assay": "EBV LMP1 TES2 canonical NF-kB signalling blockers – cell-based, HEK293, luciferase, cherry-pick, dose response (AID 588343)", "assay_type": "functional", "settings": "Homo sapiens"}, "[11]": {"assay": "reduction of Shn3 3'UTR-driven luciferase in osteoblasts – cell-based, Clone20 osteoblasts, firefly luciferase, cherry-picked, dose response (AID 624132)", "assay_type": "functional"}, "[12]": {"biological_target": "T3, Rac GTPase-activating protein 1 (Homo sapiens, UniProt Q9H0H5)", "T3 sequence (Q9H0H5 whole entry)": "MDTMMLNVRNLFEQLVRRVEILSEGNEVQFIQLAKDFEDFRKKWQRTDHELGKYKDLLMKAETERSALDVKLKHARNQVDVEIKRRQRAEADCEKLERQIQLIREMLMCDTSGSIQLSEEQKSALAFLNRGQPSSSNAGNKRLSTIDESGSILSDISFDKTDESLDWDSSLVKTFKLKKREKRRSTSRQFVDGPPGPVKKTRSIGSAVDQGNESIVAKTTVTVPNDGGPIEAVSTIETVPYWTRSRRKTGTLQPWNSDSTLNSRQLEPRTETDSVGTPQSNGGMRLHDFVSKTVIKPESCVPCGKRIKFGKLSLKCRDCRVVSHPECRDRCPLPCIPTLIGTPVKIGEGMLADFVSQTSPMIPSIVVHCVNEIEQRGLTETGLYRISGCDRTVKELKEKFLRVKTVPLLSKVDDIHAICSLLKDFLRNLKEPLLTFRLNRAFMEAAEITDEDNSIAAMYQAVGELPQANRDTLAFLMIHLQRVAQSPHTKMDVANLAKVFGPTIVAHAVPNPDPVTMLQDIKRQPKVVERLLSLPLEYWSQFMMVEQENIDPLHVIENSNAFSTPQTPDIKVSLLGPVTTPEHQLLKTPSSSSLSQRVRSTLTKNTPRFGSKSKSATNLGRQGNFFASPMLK", "assay": "blockers of MgcRacGAP-driven Rac1 GTP hydrolysis – biochemical, ADP Hunter fluorescence, primary and confirmatory, confirmation (AID 624330)", "assay_type": "functional"}, "[13]": {"assay": "loss of viability in HepG2 cells – cell-based, CellTiter-Glo, cherry-picked, cytotoxicity control for Shn3 inhibitor project, dose response (AID 624134)", "assay_type": "functional"}, "[14]": {"assay": "non-specific 3'UTR reporter inhibition in Clone20-Shn3RL – cell-based, Renilla luciferase, cherry-picked, counter-screen for Shn3 inhibitor project, dose response (AID 624133)", "assay_type": "functional"}}, "note": "Calls of active or inactive are those of the source.", "data": [{"smiles": "COc1ccccc1C1=Nn2c(nnc2C2CCCCC2)SC1", "values": [{"measurement": "IC50", "setting": "[1]", "result": "12.1 µM (active)"}]}, {"smiles": "CCCCC(=O)Nc1ncc([N+](=O)[O-])s1", "values": [{"measurement": "EC50", "setting": "[2]", "result": "> 160 µM (inactive)"}, {"measurement": "EC50", "setting": "[3]", "result": "0.141 µM (active)"}]}, {"smiles": "CCOC(=O)c1cnc2c(Cl)ccc(Cl)c2c1O", "values": [{"measurement": "IC50", "setting": "[4]", "result": "17.3 µM (not active)"}]}, {"smiles": "CN(C1=NC(=O)C(CC(=O)Nc2ccc(Br)cc2)S1)c1ccc(O)cc1", "note": "(configuration not stated)", "values": [{"measurement": "CC50", "setting": "[5]", "result": "36 µM (active)"}, {"measurement": "EC50", "setting": "[6]", "result": "66.4 µM (active)"}, {"measurement": "EC50", "setting": "[7]", "result": "> 120 µM (not active)"}, {"measurement": "EC50", "setting": "[8]", "result": "23.8 µM (active)"}]}, {"smiles": "Cc1cccc(NC(=O)NC2CCCCCCC2)c1", "values": [{"measurement": "EC50", "setting": "[2]", "result": "24.8 µM (active)"}, {"measurement": "EC50", "setting": "[3]", "result": "> 38 µM (not active)"}]}, {"smiles": "Cc1ccc(NC(=S)NC(=O)C2CC2)cc1Cl", "values": [{"measurement": "EC50", "setting": "[2]", "result": "> 160 µM (inactive)"}, {"measurement": "EC50", "setting": "[3]", "result": "3.32 µM (active)"}]}, {"smiles": "COc1cc2cc(C(=O)Nc3ccc4c(c3)OCCO4)[nH]c2cc1OC", "values": [{"measurement": "EC50", "setting": "[9]", "result": "0.907 µM (active)"}, {"measurement": "AC50", "setting": "[10]", "result": "0.595 µM (active)"}]}, {"smiles": "COCCSc1nnc(NC(=O)CCS(=O)(=O)Cc2ccccc2)s1", "values": [{"measurement": "IC50", "setting": "[1]", "result": "45.5 µM (active)"}]}, {"smiles": "O=C(c1ccc(F)cc1)N1CCN2C(=O)c3ccccc3C12c1ccc(Cl)cc1", "note": "(configuration not stated)", "values": [{"measurement": "CC50", "setting": "[5]", "result": "29 µM (active)"}]}, {"smiles": "O=C(OCC#CCSc1nnc(-c2ccccc2)o1)c1ccco1", "values": [{"measurement": "IC50", "setting": "[1]", "result": "21.1 µM (active)"}]}, {"smiles": "Cc1cc(C)c(S(=O)(=O)Nc2cccc(-n3cnnn3)c2)c(C)c1", "values": [{"measurement": "EC50", "setting": "[2]", "result": "29.6 µM (active)"}, {"measurement": "EC50", "setting": "[3]", "result": "10.9 µM (active)"}]}, {"smiles": "CC(=O)N1CCOc2cc(S(=O)(=O)NCc3ccc(F)cc3)c(C)cc21", "values": [{"measurement": "AC50", "setting": "[11]", "result": "> 70 µM (inactive)"}]}, {"smiles": "CN(C)c1ccc(NC(=O)CCN2C(=O)c3cccc([N+](=O)[O-])c3C2=O)cc1", "values": [{"measurement": "IC50", "setting": "[12]", "result": "86.5 µM (active)"}]}, {"smiles": "O=C(Oc1ccc(Cl)c2cccnc12)c1cccc([N+](=O)[O-])c1", "values": [{"measurement": "EC50", "setting": "[2]", "result": "19.9 µM (inconclusive)"}, {"measurement": "EC50", "setting": "[3]", "result": "> 38 µM (not active)"}]}, {"smiles": "O=C(Nc1ccc(Cl)cc1)c1ccc(-n2cncn2)c([N+](=O)[O-])c1", "values": [{"measurement": "CC50", "setting": "[5]", "result": "20.6 µM (active)"}]}, {"smiles": "COc1ccc(-n2nc3c(N4CCC(C(=O)NCC(C)c5ccccc5)CC4)nnc(C)c3c2C)cc1", "note": "(configuration not stated)", "values": [{"measurement": "AC50", "setting": "[11]", "result": "3.25 µM (active)"}, {"measurement": "AC50", "setting": "[13]", "result": "30.2 µM (active)"}, {"measurement": "AC50", "setting": "[14]", "result": "36.7 µM (active)"}]}]}
